Drawing on PubChem BioAssay (NCI), this text covers TGI for eleven molecules.

Molecules are shown by their SMILES.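 The compound was tested at five concentrations on cells cultured in 96-well plates, with a 48-hour exposure period. The concentration for full growth arrest is given as TGI.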

Some test systems named below: NCI/ADR-RES ovarian; HOP-92 NSCLC; UO-31 renal; MALME-3M melanoma; M14 melanoma; SK-MEL-2 melanoma; ACHN renal; A498 renal; K-562 leukemia; SW-620 colon.
Assay in all cases: growth of human tumour cells (NCI), 48 h

On to `C[C@H]1C=C2[C@@H]3CC(C)(C(=O)O)CC[C@]3(C)CC[C@]2(C)[C@]2(C)CC[C@H]3C(C)(C)[C@@H](OC(=O)c4cccc5c(=O)c6ccccc6[nH]c45)CC[C@]3(C)[C@@H]12` (stereo not given in full), for which the TGI with NCI/ADR-RES ovarian, in the experiment on HOP-92 NSCLC, in the experiment on UO-31 renal, in the experiment with MALME-3M melanoma, in the experiment with M14 melanoma and in the experiment on SK-MEL-2 melanoma was above 100 µM in each case. The TGI with ACHN renal, in the experiment on A498 renal, in the experiment on K-562 leukemia and with SW-620 colon was above 100 µM throughout.

As for `COC(=O)c1cnn2c1n[n+]([O-])c1ccccc12`, the TGI in the experiment on NCI/ADR-RES ovarian, in the experiment on HOP-92 NSCLC, in the experiment on UO-31 renal, in the experiment on MALME-3M melanoma, with M14 melanoma and in the experiment on SK-MEL-2 melanoma was above 100 µM each time. Besides, the TGI in the experiment with ACHN renal, with A498 renal, in the experiment with K-562 leukemia and in the experiment on SW-620 colon was above 100 µM throughout.

On to `COC(=O)c1c(O)ccc2c1C1(Cc3ccccc3C1=O)C(O)O2` (stereo not given), for which the TGI in the experiment on NCI/ADR-RES ovarian is above 100 µM; in the experiment on HOP-92 NSCLC, 60.2 µM; in the experiment with UO-31 renal it was 85 µM; in the experiment with MALME-3M melanoma, 71.4 µM; with M14 melanoma, 52.2 µM; in the experiment with SK-MEL-2 melanoma it was above 100 µM. For the same molecule, the TGI is 55.7 µM in the experiment on ACHN renal, above 100 µM in the experiment on A498 renal, above 100 µM in the experiment on K-562 leukemia and above 100 µM in the experiment on SW-620 colon.

Regarding `OC(c1ccc(-c2ccccc2)cc1)C(F)(F)c1nc2ccccc2o1` (stereo not given), the TGI in the experiment with NCI/ADR-RES ovarian is above 100 µM; in the experiment with HOP-92 NSCLC, above 86.3 µM; with UO-31 renal, above 100 µM; in the experiment with MALME-3M melanoma, above 100 µM; with M14 melanoma, above 100 µM; in the experiment with SK-MEL-2 melanoma it was above 100 µM. Further, the TGI in the experiment on ACHN renal is above 100 µM; with A498 renal, above 41.2 µM; in the experiment with K-562 leukemia it was above 61.3 µM; in the experiment on SW-620 colon it was above 100 µM.

`Cc1ccc(N=Nc2c(O)c(C(=O)Nc3ccccc3)cc3ccccc23)c([N+](=O)[O-])c1`: the TGI with NCI/ADR-RES ovarian, in the experiment with HOP-92 NSCLC, in the experiment on UO-31 renal, in the experiment on MALME-3M melanoma, with M14 melanoma and with SK-MEL-2 melanoma was above 100 µM in each case. Further, the TGI in the experiment with ACHN renal, with A498 renal, in the experiment on K-562 leukemia and in the experiment on SW-620 colon was above 100 µM in each case.

Regarding `CC(=O)OCC1OC(n2c(=O)[nH]c(=O)c3sccc32)C(Br)C1OC(C)=O` (stereo not given), the TGI with NCI/ADR-RES ovarian, in the experiment on HOP-92 NSCLC, in the experiment with UO-31 renal, with MALME-3M melanoma, in the experiment with M14 melanoma and in the experiment with SK-MEL-2 melanoma was above 100 µM throughout. Also, the TGI in the experiment on ACHN renal, with A498 renal, in the experiment on K-562 leukemia and in the experiment on SW-620 colon was above 100 µM each time.

On to `O=C(CSC1=NCCN1)Nc1ccccc1`, for which the TGI in the experiment with NCI/ADR-RES ovarian was 73.6 µM; in the experiment with HOP-92 NSCLC, 91 µM; in the experiment on UO-31 renal, above 100 µM; in the experiment with MALME-3M melanoma, 60 µM; in the experiment on M14 melanoma it was above 100 µM; with SK-MEL-2 melanoma it was 44.5 µM. Moreover, the TGI is 53.8 µM in the experiment with ACHN renal, above 100 µM in the experiment with A498 renal, above 100 µM in the experiment with K-562 leukemia and above 100 µM in the experiment on SW-620 colon.

Turning to `CC(C)(CC(O)C#N)/[N+]([O-])=[N+](\[O-])C(C)(C)CC(O)C#N` (stereo not given), the TGI is above 100 µM in the experiment with NCI/ADR-RES ovarian; 41.9 µM in the experiment on HOP-92 NSCLC; 98.1 µM in the experiment with UO-31 renal; 54.2 µM in the experiment with MALME-3M melanoma; 36.9 µM in the experiment with M14 melanoma; above 100 µM with SK-MEL-2 melanoma. For the same molecule, the TGI is 74.5 µM in the experiment on ACHN renal, above 100 µM in the experiment on A498 renal, 42.5 µM in the experiment with K-562 leukemia and 34.1 µM in the experiment on SW-620 colon.

On to `CC(C)(C)c1cc(C2COC(c3cc(C(C)(C)C)c(O)c(C(C)(C)C)c3)CO2)cc(C(C)(C)C)c1O` (stereo not given), for which the TGI in the experiment on NCI/ADR-RES ovarian, in the experiment with HOP-92 NSCLC, with UO-31 renal, in the experiment with MALME-3M melanoma, in the experiment with M14 melanoma and in the experiment on SK-MEL-2 melanoma was above 100 µM throughout. Besides, the TGI in the experiment on ACHN renal, in the experiment with A498 renal, in the experiment with K-562 leukemia and with SW-620 colon was above 100 µM throughout.

Consider `CC(C)(C)OC(=O)NCCC1CN(C(=O)c2ccccc2)c2ccccc21` (stereo not given), for which the TGI in the experiment with NCI/ADR-RES ovarian was determined as 57.5 µM; with HOP-92 NSCLC, 94.6 µM; in the experiment on UO-31 renal, 76.1 µM; in the experiment with MALME-3M melanoma it was 80.9 µM; in the experiment on M14 melanoma, 33.6 µM; with SK-MEL-2 melanoma, 91.2 µM. The TGI with ACHN renal, with A498 renal, with K-562 leukemia and with SW-620 colon was above 100 µM each time.

Turning to `CCC[C@H](C)C[C@H](C)C[C@H](C)/C=C(\C)[C@@H](O)[C@@H](C)C(=O)CC`, the TGI was found to be 30.9 µM in the experiment on NCI/ADR-RES ovarian; 38.3 µM in the experiment on HOP-92 NSCLC; 41.7 µM with UO-31 renal; 33.6 µM with MALME-3M melanoma; 35.7 µM with M14 melanoma; 44.7 µM in the experiment on SK-MEL-2 melanoma. In addition, the TGI in the experiment with ACHN renal was found to be 39 µM; with A498 renal, 42.6 µM; with K-562 leukemia, 38 µM; in the experiment on SW-620 colon, 43 µM.
